Test [1] addresses thrombin-stimulated platelets (Homo sapiens, UniProt P05106+P08514). In words: Fibrinogen-Binding Assay (125I-fibrinogen binding to platelets). The conditions noted are these: 125I-fibrinogen 0.176 μmol/liter, thrombin-stimulated platelets; read-out: Inhibition of 125I-Fibrinogen Binding to Platelets IC50. The protocol:
Platelets are washed free of plasma constituents by the albumin density-gradient technique of Walsh, P. N., et al., Br. J. Haematol. […] After these additions, the final platelet count in the mixture is 1×10^11 /liter. After incubation for an additional 30 minutes at 22°-25° C., bound and free ligand are separated by centrifuging 50 μl of the mixture through 300 μl of 20% sucrose at 12,000×g for 4 minutes. The platelet pellet is then separated from the rest of the mixture to determine platelet-bound radioactivity. Nonspecific binding is measured in mixtures containing an excess of unlabeled ligand. […] The IC50 is derived by plotting residual fibrinogen binding against the logarithm of the sample compound's concentration.

Test [2] deals with fixed activated platelets (Homo sapiens, UniProt P05106+P08514). The experiment in a line: Platelet Aggregation Assay (fibrinogen-mediated aggregation of fixed-activated platelets). Format: cell-based. The conditions noted are these: for IC50: fixed activated platelets, human fibrinogen 250 μg/ml, read-out: Inhibition of Fibrinogen Mediated Platelet Aggregation IC50; for inhibition at 25 µM: read-out: Inhibition of Fibrinogen Mediated Platelet Aggregation % inhibition at 25 μM; for inhibition at 100 µM: read-out: Inhibition of Fibrinogen Mediated Platelet Aggregation % inhibition at 100 μM. The protocol: PLATELET AGGREGATION ASSAY
Preparation of Fixed-Activated Platelets
To the activated platelets is added paraformaldehyde to a final concentration of 0.50% and this incubated at room temperature for 30 minutes. The fixed activated platelets are then collected by centrifugation at 650×g for 15 minutes.
Platelet Aggregation Assay
The fixed activated platelets are incubated with a selected dose of the compound to be tested for platelet aggregation inhibition for one minute and aggregation initiated by addition of human fibrinogen to a final concentration of 250 μg/ml. A platelet aggregation profiler Model PAP-4 is used to record the platelet aggregation.

Non-standard residues stand in square brackets, D forms with d. Residues, ends and D or L forms follow the SMILES beside them. NMeD = CN[C@@H](CC(=O)O)C(=O)O; Orn = NCCC[C@H](N)C(=O)O Bounds are passed on as bounds.

Chain of thrombin-stimulated platelets (P08514 32-1039): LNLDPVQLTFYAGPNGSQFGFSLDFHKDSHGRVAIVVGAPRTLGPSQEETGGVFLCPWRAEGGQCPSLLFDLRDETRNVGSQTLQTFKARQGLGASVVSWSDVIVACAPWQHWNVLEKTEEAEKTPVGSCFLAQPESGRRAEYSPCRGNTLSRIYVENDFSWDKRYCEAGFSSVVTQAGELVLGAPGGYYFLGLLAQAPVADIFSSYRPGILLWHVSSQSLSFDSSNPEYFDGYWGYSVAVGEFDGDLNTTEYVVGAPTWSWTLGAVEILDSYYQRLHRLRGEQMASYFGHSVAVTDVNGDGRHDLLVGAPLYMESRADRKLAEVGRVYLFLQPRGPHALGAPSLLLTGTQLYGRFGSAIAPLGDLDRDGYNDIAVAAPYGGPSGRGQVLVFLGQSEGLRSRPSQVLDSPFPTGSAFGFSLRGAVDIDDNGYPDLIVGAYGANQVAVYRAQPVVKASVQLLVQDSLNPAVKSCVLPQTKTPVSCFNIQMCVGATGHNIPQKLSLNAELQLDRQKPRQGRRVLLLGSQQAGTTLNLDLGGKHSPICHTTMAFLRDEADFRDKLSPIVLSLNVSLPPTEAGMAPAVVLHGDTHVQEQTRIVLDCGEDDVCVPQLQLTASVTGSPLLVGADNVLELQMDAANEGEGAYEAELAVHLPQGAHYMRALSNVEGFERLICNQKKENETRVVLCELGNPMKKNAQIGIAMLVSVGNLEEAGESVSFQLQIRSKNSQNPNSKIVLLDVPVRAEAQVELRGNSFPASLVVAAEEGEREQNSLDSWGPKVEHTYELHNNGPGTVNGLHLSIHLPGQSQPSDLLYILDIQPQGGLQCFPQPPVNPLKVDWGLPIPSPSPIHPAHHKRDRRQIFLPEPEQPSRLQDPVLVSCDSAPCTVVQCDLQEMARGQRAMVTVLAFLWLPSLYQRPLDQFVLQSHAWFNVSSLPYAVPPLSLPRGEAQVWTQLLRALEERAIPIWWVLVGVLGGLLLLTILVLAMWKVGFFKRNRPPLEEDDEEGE
Chain of thrombin-stimulated platelets (P05106 27-788): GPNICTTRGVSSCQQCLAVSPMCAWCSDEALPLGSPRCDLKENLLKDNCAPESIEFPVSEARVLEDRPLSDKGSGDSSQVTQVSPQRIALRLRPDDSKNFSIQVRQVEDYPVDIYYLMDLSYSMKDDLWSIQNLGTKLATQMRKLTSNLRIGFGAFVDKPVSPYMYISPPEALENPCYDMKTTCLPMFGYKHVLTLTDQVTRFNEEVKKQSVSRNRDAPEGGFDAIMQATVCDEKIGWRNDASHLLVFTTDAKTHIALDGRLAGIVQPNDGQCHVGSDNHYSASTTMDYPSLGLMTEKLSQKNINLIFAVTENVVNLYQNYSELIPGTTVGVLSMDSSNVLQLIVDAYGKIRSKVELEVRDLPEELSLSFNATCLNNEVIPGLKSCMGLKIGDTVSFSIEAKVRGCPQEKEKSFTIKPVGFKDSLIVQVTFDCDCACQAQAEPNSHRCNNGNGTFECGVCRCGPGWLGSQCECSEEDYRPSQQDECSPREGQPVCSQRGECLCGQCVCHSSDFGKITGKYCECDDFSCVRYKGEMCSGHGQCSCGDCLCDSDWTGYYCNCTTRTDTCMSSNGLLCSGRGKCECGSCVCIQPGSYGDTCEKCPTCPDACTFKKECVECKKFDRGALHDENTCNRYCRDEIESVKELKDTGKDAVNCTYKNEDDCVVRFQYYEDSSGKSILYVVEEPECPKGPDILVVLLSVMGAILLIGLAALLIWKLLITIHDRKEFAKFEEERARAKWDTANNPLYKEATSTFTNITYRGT
Chain of fixed activated platelets (P08514 32-1039): as the sequence (P08514 32-1039) above
Chain of fixed activated platelets (P05106 27-788): as the sequence (P05106 27-788) above

With `CN(CC(=O)N[C@@H](CC(=O)O)C(=O)N[C@@H](Cc1ccc(O)cc1)C(=O)O)C(=O)CCCCCNC(=N)N` [6-Guanidinohexanoyl-sarcosyl-L-aspartyl-L-tyrosine], in test [1], the IC50 (in general, the concentration that inhibits the measured activity by half) was 3.6 µM. Moreover, in test [2], the IC50 was determined as 7.3 µM and the inhibition (commonly the share of the control response that was lost under treatment) at 25 µM is 94%.

Take `N=C(N)NCCCCCCCCC(=O)N[C@@H](CC(=O)O)C(=O)NCCCCNC(=N)N` [9-Guanidinononanoyl-L-aspartyl-(des-carboxy)-L-arginine]: the 50% inhibitory concentration (IC50) in test [1] was found to be 0.52 µM; in test [2], 4.4 µM. Also, the inhibition at 25 µM in test [2] worked out at 84%.

In the case of `N=C(N)NCCCCCCCC(=O)NCC(=O)NCC(=O)O` [8-Guanidinooctanoyl-glycyl-glycine], in test [2], the inhibition at 25 µM is 12%.

Turning to `COC(=O)[C@](CCCNC(=N)N)(Cc1ccccc1)NC(=O)[C@H](CC(=O)O)NC(=O)CCCCCCCCNC(=N)N` [9-Guanidinononanoyl-L-aspartyl-(S)-α-benzyl arginine methyl ester], the IC50 in test [1] amounted to 20 µM; in test [2] it was 13.3 µM. Moreover, in test [2], the inhibition at 25 µM is 69%.

As to `CN(CC(=O)N[C@@H](CC(=O)O)C(=O)N[C@@H](CCCCN)C(=O)O)C(=O)CCCCCNC(=N)N` [6-Guanidinohexanoyl-sarcosyl-L-aspartyl-L-lysine], in test [1], the IC50 amounted to 0.34 µM. Also, in test [2], the IC50 was determined as 4.1 µM and the inhibition at 25 µM was 86%.

On to `CCC(C)[C@H](CCCNC(=N)N)NC(=O)[C@H](CC(=O)O)NC(=O)CCCCCCCCNC(=N)N` (stereo partly drawn) [9-Guanidinononanoyl-L-aspartyl-((S)-4-amino-4-sec-butylbutyl)guanidine], for which the inhibition at 25 µM in test [2] is 76%.

Consider `CCN(CC(=O)N[C@@H](CC(=O)O)C(=O)N[C@H](C(=O)O)C(C)C)C(=O)CCCCCNC(=N)N` [6-Guanidinohexanoyl-N-ethylglycine-L-aspartyl-L-valine], for which the IC50 in test [1] worked out at 0.12 µM. In test [2], the IC50 was 0.38 µM and the inhibition at 25 µM stood at 96%.

With `CN(CC(=O)N[C@@H](CC(=O)O)C(=O)N[C@@H](CCCNC(=N)N)C(=O)O)C(=O)CCCCCNC(=N)N` [6-Guanidinohexanoyl-sarcosyl-L-aspartyl-L-arginine], the IC50 in test [1] is 0.52 µM. Moreover, in test [2], the IC50 was determined as 2.1 µM and the inhibition at 25 µM came to 97%.

With `CC(C)[C@H](NC(=O)[C@H](CC(=O)O)NC(=O)CCCCCCCCNC(=N)N)C(=O)O` [9-guanidinononanoyl-L-aspartyl-L-valine], the half-inhibitory concentration (IC50) in test [1] was 0.2 µM. For the same molecule, in test [2], the IC50 is 1.7 µM and the inhibition at 25 µM was 96%.

For the molecule `CC(C)C[C@@H](CCC(=O)N[C@@H](CCCNC(=N)N)C(=O)O)NC(=O)[C@H](CC(=O)O)NC(=O)CCCCCCCCNC(=N)N` [N-[N-(9-Guanidinononanoyl-L-aspartyl)-(R)-4-amino-4-isobutylbutyryl]-L-arginine], in test [1], the IC50 stood at 2.1 µM.

Regarding `CCC(C)C[C@H](NC(=O)[C@H](CC(=O)O)NC(=O)CCCCCCCCNC(=N)N)C(=O)N[C@@H](CCCNC(=N)N)C(=O)O` (stereo partly drawn) [9-Guanidinononanoyl-L-aspartyl-homo-L-isoleucyl-L-arginine], in test [2], the inhibition at 25 µM was 94%.

Consider `CC(C)[C@H](NC(=O)[C@H](CC(=O)O)NC(=O)CCCCNC(=N)N)C(=O)O` [5-guanidinovaleroyl-L-aspartyl-L-valine], for which the inhibition at 25 µM in test [2] was determined as 28%.

In the case of `N=C(N)NCCC[C@H](N)C(=O)NCC(=O)N[C@@H](CC(=O)O)C(=O)NCC(=O)O` [L-arginylglycyl-L-aspartyl glycine] (H-RGDG-OH), in test [2], the IC50 worked out at 14.3 µM and the inhibition at 100 µM amounted to 91%.

Turning to `CC(C)[C@H](NC(=O)[C@H](CC(=O)O)NC(=O)CCCCCCCCNC(=N)N)C(=O)N[C@@H](CCCNC(=N)N)C(=O)O` [9-Guanidinononanoyl-L-aspartyl-L-valine-L-arginine], in test [2], the IC50 is 0.22 µM and the inhibition at 25 µM stood at 98%.

Consider `CCCCOC(=O)[C@@H](NC(=O)[C@H](CC(=O)O)NC(=O)CN(C)C(=O)CCCCCNC(=N)N)C(C)C` [6-Guanidinohexanoyl-sarcosyl-L-aspartyl-L-valine-butylester], for which, in test [2], the IC50 is 4.5 µM and the inhibition at 25 µM was 90%.

Take `CC(C)[C@H](NC(=O)[C@H](CC(=O)O)NC(=O)CN(C)C(=O)CCCCCn1ccnc1)C(=O)O` [6-(Imidazol-1-yl)-hexanoylsarcosyl-L-aspartyl]: the inhibition at 25 µM in test [2] is 94%.

As for `CC(C)C[C@H](NC(=O)[C@H](CC(=O)O)NC(=O)CCCCCCCCNC(=N)N)C(=O)N[C@@H](CCCNC(=N)N)C(=O)O` [9-Guanidinononanoyl-L-aspartyl-L-leucyl-L-arginine], in test [2], the 50% inhibitory concentration (IC50) turned out to be 0.52 µM and the inhibition at 25 µM stood at 96%.

With `CC(C)[C@H](NC(=O)[C@H](CC(=O)O)N(C)C(=O)CNC(=O)[C@@H](N)CCCNC(=N)N)C(=O)O` [L-arginyl-glycyl-L-N-methylaspartyl-L-valine] (H-RG[NMeD]V-OH), the half-inhibitory concentration (IC50) in test [2] is greater than 64 µM.

As to `Cc1nccn1CCCCCCCCC(=O)N[C@@H](CC(=O)O)C(=O)N[C@H](C(=O)O)C(C)C`, in test [2], the inhibition at 25 µM amounted to 74%.

As to `CC(C)[C@H](NC(=O)[C@@H](N)CCCNC(=O)[C@@H](N)CCCNC(=N)N)C(=O)O` [N-δ-(L-arginyl)-L-ornithyl-L-valine] (H-[Orn](Arg)-Val-OH), the inhibition at 100 µM in test [2] worked out at 20%.

Take `CCC(C)C[C@@H](NC(=O)[C@H](CC(=O)O)NC(=O)CCCCCCCCNC(=N)N)C(=O)N[C@@H](CCCNC(=N)N)C(=O)O` (stereo partly drawn) [9-Guanidinononanoyl-L-aspartyl-D-homoisoleucyl-L-arginine]: the inhibition at 25 µM in test [2] came to 98%.

As for `CC[C@H](C)[C@H](NC(=O)[C@@H](NC(=O)[C@H](CC(=O)O)NC(=O)CCCCCCCCNC(=N)N)[C@@H](C)CC)C(=O)O` [9-Guanidinononanoyl-L-aspartyl-L-isoleucyl-L-isoleucine], in test [2], the IC50 is greater than 25 µM and the inhibition at 25 µM worked out at 45%.

Take `COC(=O)[C@H](CCCNC(=N)N)NC(=O)[C@H](CC(=O)O)NC(=O)CCCCCCCCNC(=N)N` [9-Guanidinononanoyl-L-aspartyl-L-arginine methylester]: in test [2], the IC50 is 1.7 µM and the inhibition at 25 µM stood at 91%.

`CC(C)[C@H](NC(=O)[C@H](CC(=O)O)NC(=O)CCCCCCCNC(=N)N)c1nnn[nH]1` [8-Guanidinooctanoyl-L-aspartyl-L-valine-5-tetrazole]: in test [2], the IC50 is greater than 25 µM and the inhibition at 25 µM was determined as 32%.

On to `CC(C)CC(CCCN)(NC(=O)[C@H](CC(=O)O)NC(=O)CCCCCCCCNC(=N)N)C(=O)O` (stereo partly drawn) [9-Guanidinononanoyl-L-aspartyl-(R,S)-α-isobutylornithine], for which, in test [2], the IC50 is greater than 25 µM and the inhibition at 25 µM was determined as 4%.

Take `CCC(C)C(CNC(=O)[C@H](CC(=O)O)NC(=O)CCCCCCCCNC(=N)N)C(=O)N[C@@H](CCCNC(=N)N)C(=O)O` (stereo partly drawn) [N-(9-Guanidinononanoyl-L-aspartyl)-3-amino-2-sec-butyl propionic acid L-arginine amide]: the inhibition at 25 µM in test [2] worked out at 89%.

In the case of `CCCCOC(=O)C[C@H](NC(=O)CN(C)C(=O)CCCCCNC(=N)N)C(=O)N[C@H](C(=O)O)C(C)C` [6-Guanidinohexanoyl-sarcosyl-L-aspartyl-β-butylester-L-valine], in test [2], the IC50 is greater than 25 µM and the inhibition at 25 µM amounted to 18%.

Turning to `CC(C)(C)[C@H](NC(=O)[C@H](CC(=O)O)NC(=O)CCCCCCCCNC(=N)N)C(=O)N[C@@H](CCCNC(=N)N)C(=O)O` [9-Guanidinononanoyl-L-aspartyl-L-t-butylglycyl-L-arginine], in test [2], the IC50 was determined as 1.5 µM and the inhibition at 25 µM was 96%.

As to `CC(C)C[C@@H](CCCNC(=N)N)NC(=O)[C@H](CC(=O)O)NC(=O)CCCCCCCCNC(=N)N` [(R)-4-[N-(9-Guanidinononanoyl-L-aspartyl)-amino]-4-isobutylbutylguanidine], the inhibition at 25 µM in test [2] came out at 94%.

With `C[C@H](NC(=O)[C@H](CC(=O)O)NC(=O)CCCCCCCCNC(=N)N)C(=O)N[C@@H](CCCNC(=N)N)C(=O)O` [9-Guanidinononanoyl-L-aspartyl-L-alanyl-L-arginine], in test [2], the IC50 worked out at 0.54 µM and the inhibition at 25 µM stood at 89%.

For `CC[C@@H](C)[C@H](CC(=O)NCCCCNC(=N)N)NC(=O)[C@H](CC(=O)O)NC(=O)CCCCCCCCNC(=N)N` [9-Guanidinononanoyl-L-aspartyl-D-β-homoiso-leucyl-(des-carboxy)-L-arginine], in test [2], the IC50 was found to be 3.3 µM and the inhibition at 25 µM came out at 94%.

With `COC(=O)[C@](CCCNC(=N)N)(CC(C)C)NC(=O)[C@H](CC(=O)O)NC(=O)CCCCCCCCNC(=N)N` [9-Guanidinononanoyl-L-aspartyl-(S)-α-isobutyl-arginine methylester], in test [2], the IC50 is greater than 25 µM and the inhibition at 25 µM was determined as 0%.

Turning to `CC[C@H](C)[C@@H](CN[C@@H](CCCNC(=N)N)C(=O)O)NC(=O)[C@H](CC(=O)O)NC(=O)CCCCCCCCNC(=N)N` [9-Guanidinononanoyl-L-aspartyl-β-homo-L-isoleucyl psi(CH2 NH)-L-arginine], the inhibition at 25 µM in test [2] worked out at 38%.
